From paper PMC8839448, “Novel Pyridothienopyrimidine Derivatives: Design, Synthesis and Biological Evaluation as Antimicrobial and Anticancer Agents” (Molecules, 2022)
≈ marks a conversion by molar mass, not a printed value.

Assays:
[1] = tested on: Salmonella typhimurium 14028; experiment: In vitro antibacterial activity, MIC by broth dilution; type: cell-based; conditions: Salmonella enterica, Gram −ve bacteria, read-out: MIC S. typhimurium
Bacillus subtilis 6633 = experiment: as above; type: cell-based; conditions: Gram +ve bacteria, read-out: MIC B. subtilis
Escherichia coli 8739 = experiment: as above; type: cell-based; conditions: Gram −ve bacteria
[2] = tested on: Staphylococcus aureus 25923; experiment: as above; type: cell-based; conditions: Gram +ve bacteria, read-out: MIC S. aureus
Bacillus cereus 33018 = experiment: as above; type: cell-based; conditions: Gram +ve bacteria, read-out: MIC B. cereus
five bacterial strains = experiment: Antibacterial MIC, range over the panel; type: cell-based
[3] = tested on: five bacterial and five fungal strains; experiment: Antimicrobial MIC, range over bacterial and fungal strains; type: cell-based; conditions: for MIC range of the reference drugs: range over strains; for MIC range, antibacterial and antifungal: range over bacterial and fungal strains
[4] = tested on: all the tested yeasts and fungi strains; experiment: Antifungal MIC, range over the panel; type: cell-based
Candida tropicals 750 = experiment: In vitro antifungal activity, MIC by broth dilution; type: cell-based; conditions: yeast, read-out: MIC C. tropicals
Candida albicans 10231 = experiment: as above; type: cell-based; conditions: yeast, read-out: MIC C. albicans
Aspergillus flavus = experiment: as above; type: cell-based; conditions: fungi
[5] = tested on: Aspergillus niger EM77 (KF774181); experiment: as above; type: cell-based; conditions: fungi
[6] = tested on: Saccharomycese cerevisiae; experiment: as above; type: cell-based; conditions: Saccharomyces cerevisiae, yeast, read-out: MIC S. cerevisiae
[7] = Cytotoxicity against normal cells, MTT assay; conditions: human, WISH normal cells
Source text: The cytotoxicity was estimated as IC50 in μM for the tested compounds and the reference drug doxorubicin, and are listed in Table 3.

[8] = tested on: hepatocellular carcinoma (HepG2) cells; experiment: Cytotoxicity, MTT assay; type: cell-based; conditions: Homo sapiens, read-out: Cytotoxic activity IC50 HepG2
EGFR kinase = EGFR kinase (Homo sapiens, UniProt P00533); experiment: In vitro EGFR kinase inhibitory assay (Kinase-Glo MAX kit); conditions: EGFR IC50, EGFR kinase assay kit, triplicate, ± SD
Procedure: The assay kit is designed to measure EGFR Kinase activity for screening applications using Kinase-Glo® MAX as a detection reagent. The luminescence was measured using a microplate reader (Infinite M200 microplate reader, Tecan, Männedorf, Switzerland) [54]. All assays were performed in triplicate and the relative inhibition (%) of inhibitors was then calculated via comparison with the control with no inhibitor.
In vitro EGFR kinase assay
The assay Kit is designed to measure EGFR Kinase
activity for screening applications using Kinase-Glo® MAX as a detection reagent
using Kinase-Glo® MAX as a detection reagent. Thaw 5x Kinase Buffer 1: ATP and
PTK substrate Poly (Glu:Tyr 4:1) (10 mg/ml) kinase was provided. Then the master
mixture was prepared: N wells x (6 μl 5x Kinase Buffer 1 + 1 µl ATP (500 µM) + 1
µl PTK substrate Poly (Glu:Tyr 4:1) (10 mg/ml)+ 17 μl water) and 25 μl of the
mixture was added to every well. The tested compounds were dissolved in DMSO,
well labeled as “Positive Control", 5 μl of the same solution of the reference drug
erlotinib and “Blank”, 5 μl of the same solution without inhibitor (Inhibitor buffer).
ml of 1x Kinase Buffer 1) was prepared by mixing 600 µl of 5x Kinase Buffer 1 with
The reaction initiated by adding 20 µl of diluted EGFR enzyme to the wells designated “Positive Control” and "Test Inhibitor Control". Incubate at 30°C for 40
minutes. Thaw Kinase-G lo Max reagent. After the 40 minute reaction, 50 µl of
Kinase-Glo Max reagent was added to each well. The plate was covered with
aluminum foil and incubate at room temperature for 15 minutes. Then the
luminescence was measured using the microplate reader (Infinite M200 microplate
reader, Tecan, Männedorf, Switzerland). All assays were performed in triplicate. The
relative inhibition (%) of inhibitors were then calculated compared to the control with
no inhibitor. Then the IC50 values and their standard deviation (SD) for the tested
compounds and the reference drug were determined in (nM).

[9] = tested on: breast cancer (MCF-7) cells; experiment: Cytotoxicity, MTT assay; type: cell-based, human; conditions: Homo sapiens, MCF7, MCF7 cells, read-out: Cytotoxic activity IC50 MCF7
[10] = tested on: HepG2 and MCF-7 cancer cell lines; experiment: Cytotoxicity, MTT assay, range over both cancer cell lines; type: cell-based, human; conditions: for IC50: Homo sapiens, range over HepG2 and MCF-7, read-out: IC50 range, cytotoxic activity against both cell lines
E. coli = conditions: Figure 1, reported agents; ref [21],[22],[33],[34]; cited from earlier work
S. aureus = conditions: Figure 1, reported agents; ref [21],[22],[33],[34]; cited from earlier work
HepG2 and MCF-7 = conditions: Figure 1, reported agents; ref [21],[22],[33],[34]; read-out: IC50 range HepG2 and MCF-7; cited from earlier work
B. cereus = conditions: Figure 1, reported agents; ref [21],[22],[33],[34]; cited from earlier work
S. typhimurium = conditions: Figure 1, reported agents; ref [21],[22],[33],[34]; cited from earlier work

Chain of EGFR kinase (P00533 25-1210): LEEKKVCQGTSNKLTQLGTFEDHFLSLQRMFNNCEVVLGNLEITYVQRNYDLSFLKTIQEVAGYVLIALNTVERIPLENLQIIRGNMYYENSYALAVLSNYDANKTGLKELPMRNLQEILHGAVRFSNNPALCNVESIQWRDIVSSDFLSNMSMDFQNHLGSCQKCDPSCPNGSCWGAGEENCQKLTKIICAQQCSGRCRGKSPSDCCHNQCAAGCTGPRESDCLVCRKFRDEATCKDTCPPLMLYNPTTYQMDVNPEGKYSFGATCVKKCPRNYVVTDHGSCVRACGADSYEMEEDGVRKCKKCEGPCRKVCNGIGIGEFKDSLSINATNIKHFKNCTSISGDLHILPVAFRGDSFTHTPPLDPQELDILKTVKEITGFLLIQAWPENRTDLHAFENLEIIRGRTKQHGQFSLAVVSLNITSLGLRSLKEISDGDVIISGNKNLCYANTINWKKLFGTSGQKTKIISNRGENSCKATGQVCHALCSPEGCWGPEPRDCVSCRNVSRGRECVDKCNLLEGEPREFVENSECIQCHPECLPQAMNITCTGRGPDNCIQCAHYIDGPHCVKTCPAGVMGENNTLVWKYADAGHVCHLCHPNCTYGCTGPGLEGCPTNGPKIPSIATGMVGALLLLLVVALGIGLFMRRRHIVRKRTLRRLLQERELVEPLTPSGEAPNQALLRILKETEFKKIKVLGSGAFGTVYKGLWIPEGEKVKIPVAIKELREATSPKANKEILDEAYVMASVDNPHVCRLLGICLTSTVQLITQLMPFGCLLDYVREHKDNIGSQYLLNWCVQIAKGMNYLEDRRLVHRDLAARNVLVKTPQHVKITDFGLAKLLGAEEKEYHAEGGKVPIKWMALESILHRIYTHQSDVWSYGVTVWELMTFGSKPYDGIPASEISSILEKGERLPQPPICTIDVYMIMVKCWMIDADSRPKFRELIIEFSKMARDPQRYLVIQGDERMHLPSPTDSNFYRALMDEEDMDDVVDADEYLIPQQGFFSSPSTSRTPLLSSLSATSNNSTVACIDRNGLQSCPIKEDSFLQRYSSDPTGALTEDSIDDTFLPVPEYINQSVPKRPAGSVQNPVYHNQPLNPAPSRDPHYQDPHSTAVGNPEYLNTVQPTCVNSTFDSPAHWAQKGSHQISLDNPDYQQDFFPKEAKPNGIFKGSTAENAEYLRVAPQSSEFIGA

Compound	MIC [1] [µg/mL]	MIC (Bacillus subtilis 6633) [µg/mL]	MIC (Escherichia coli 8739) [µg/mL]	MIC [2] [µg/mL]	MIC (Bacillus cereus 33018) [µg/mL]	MIC range against the tested yeasts and fungi strains [4] [µg/mL]	MIC (Candida tropicals 750) [µg/mL]	MIC (Candida albicans 10231) [µg/mL]	MIC (Aspergillus flavus) [µg/mL]	MIC [5] [µg/mL]	MIC [6] [µg/mL]	IC50 [7] [µM]	melting point [°C]	IC50 [8] [µM]	IC50 (EGFR kinase) [µM]	IC50 [9] [µM]	IC50 [10] [µM]	other results
CC1(C)S[C@@H]2[C@H](NC(=O)[C@H](N)c3ccc(O)cc3)C(=O)N2[C@H]1C(=O)O [Amoxicillin, amoxicillin trihydrate, reference compound]	16	8	8	4	16													MIC range against the tested bacterial strains (five bacterial strains): 4 to 16 µg/mL; MIC range of the reference drugs [3]: 4 to 16 µM
Clc1ccccc1C(c1ccccc1)(c1ccccc1)n1ccnc1 [Clotrimazole, clotrimazole, reference compound]						4 to 16	8 (≈ 23.2 µM)	16 (≈ 46.4 µM)	8 (≈ 23.2 µM)	8 (≈ 23.2 µM)	8 (≈ 23.2 µM)							MIC range of the reference drugs [3]: 4 to 16 µM
Cc1cc(C)c2c(n1)sc1c(Cl)nc(Cl)nc12 [Compound 3a, 2,4-Dichloro-7,9-dimethylpyrido[3′,2′:4,5]thieno[3,2-d]pyrimidine]	16 (≈ 56.3 µM)	4 (≈ 14.1 µM)	8 (≈ 28.2 µM)	4 (≈ 14.1 µM)	8 (≈ 28.2 µM)	4 to 16	8 (≈ 28.2 µM)	16 (≈ 56.3 µM)	8 (≈ 28.2 µM)	8 (≈ 28.2 µM)	8 (≈ 28.2 µM)	417 ± 15.2	250 to 251	2.31 ± 0.35	0.0173 ± 0.00024	7.24 ± 0.64		MIC range, antibacterial and antifungal [3]: 4 to 16 µg/mL
Cc1ccc(-c2cc(-c3ccccc3)nc3sc4c(=O)[nH]c(CN5CCOCC5)nc4c23)cc1 [Compound 5a, 2-(Morpholinomethyl)-7-phenyl-9-(p-tolyl)pyrido[3′,2′:4,5]thieno[3,2-d]pyrimidin-4(3H)-one]	16 (≈ 34.1 µM)	8 (≈ 17.1 µM)	8 (≈ 17.1 µM)	8 (≈ 17.1 µM)	16 (≈ 34.1 µM)	4 to 16	8 (≈ 17.1 µM)	16 (≈ 34.1 µM)	8 (≈ 17.1 µM)	16 (≈ 34.1 µM)	8 (≈ 17.1 µM)	408 ± 15.9	245	1.99 ± 0.09	0.00966 ± 8e-05	2.79 ± 0.18	1.17 to 2.79	MIC range against the tested bacterial strains (five bacterial strains): 8 to 16 µg/mL; MIC range, antibacterial and antifungal [3]: 4 to 16 µg/mL
Cc1cc(C)c2c3c(sc2n1)C(=O)NC1(CCCC1)N3 [Compound 6a, 7′,9′-Dimethyl-1′H-spiro[cyclopentane-1,2′-pyrido[3′,2′:4,5]thieno[3,2-d]pyrimidin]-4′(3′H)-one]	16 (≈ 55.7 µM)	16 (≈ 55.7 µM)	32 (≈ 111 µM)	32 (≈ 111 µM)	8 (≈ 27.8 µM)		16 (≈ 55.7 µM)	64 (≈ 223 µM)	64 (≈ 223 µM)	32 (≈ 111 µM)	32 (≈ 111 µM)		245 to 246	52.2 ± 1.45		77.4 ± 3.62	12.1 to 77.4	MIC range against the tested bacterial strains (five bacterial strains): 8 to 32 µg/mL
Cc1cc(C)c2c3c(sc2n1)C(=O)NC1(CCCCC1)N3 [Compound 6c, 7′,9′-Dimethyl-1′H-spiro[cyclohexane-1,2′-pyrido[3′,2′:4,5]thieno[3,2-d]pyrimidin]-4′(3′H)-one]	16 (≈ 53.1 µM)	4 (≈ 13.3 µM)	8 (≈ 26.5 µM)	4 (≈ 13.3 µM)	8 (≈ 26.5 µM)	4 to 16	4 (≈ 13.3 µM)	16 (≈ 53.1 µM)	4 (≈ 13.3 µM)	8 (≈ 26.5 µM)	16 (≈ 53.1 µM)		290 to 291	12.1 ± 0.33		22.2 ± 0.67	12.1 to 77.4	
Cc1ccc(-c2cc(-c3ccccc3)nc3sc4c(c23)NC2(CCCC2)N=C4SCC(N)=O)cc1 [Compound 8b, 2-((7′-Phenyl-9′-(p-tolyl)-1′H-spiro[cyclopentane-1,2′-pyrido[3′,2′:4,5]thieno[3,2-d]pyrimidin]-4′-yl)sulfanyl)acetamide]	16 (≈ 32.1 µM)	8 (≈ 16 µM)	8 (≈ 16 µM)	4 (≈ 8.02 µM)	16 (≈ 32.1 µM)	4 to 16	16 (≈ 32.1 µM)	8 (≈ 16 µM)	8 (≈ 16 µM)	8 (≈ 16 µM)	16 (≈ 32.1 µM)	401 ± 17.3	148 to 149	2.79 ± 0.08	0.03844 ± 0.00025	13.5 ± 0.76		
Cc1ccc(-c2cc(-c3ccccc3)nc3sc4c(c23)NC2(CCCC2)N=C4SCC2CO2)cc1 (stereo not drawn) [Compound 9b, 4′-((Oxiran-2-ylmethyl)sulfanyl)-7′-phenyl-9′-(p-tolyl)-1′H-spiro[cyclopentane-1,2′-pyrido[3′,2′:4,5]thieno[3,2-d]pyrimidine]]	16 (≈ 32.1 µM)	4 (≈ 8.04 µM)	4 (≈ 8.04 µM)	4 (≈ 8.04 µM)	8 (≈ 16.1 µM)	4 to 16	4 (≈ 8.04 µM)	4 (≈ 8.04 µM)	8 (≈ 16.1 µM)	8 (≈ 16.1 µM)	8 (≈ 16.1 µM)	418 ± 14.1	120	1.17 ± 0.09	0.00727 ± 0.00011	1.52 ± 0.08	1.17 to 2.79	MIC range, antibacterial and antifungal [3]: 4 to 16 µg/mL; Fold higher growth inhibition than doxorubicin ([10]; HepG2 and MCF-7, relative to doxorubicin): 2–3 fold
CCOC(=O)c1sc2nc(-c3ccc(OC)cc3)cc(-c3cccs3)c2c1N [III]																		MIC E. coli (E. coli): 7.80 µg/mL (≈ 19 µM); MIC S. aureus (S. aureus): 7.80 µg/mL (≈ 19 µM); IC50 (HepG2 and MCF-7): 33.2 to 34.8 µM
COc1ccc(-c2cc(-c3ccco3)nc3sc(C(N)=O)c(N=C4CCCCC4)c23)cc1 [II]																		MIC B. cereus (B. cereus): 15.60 µg/mL (≈ 35 µM); MIC E. coli (E. coli): 15.60 µg/mL (≈ 35 µM); MIC S. aureus (S. aureus): 15.60 µg/mL (≈ 35 µM)
NC(=O)c1sc2nc(-c3ccco3)cc(-c3cccs3)c2c1N [I]																		MIC E. coli (E. coli): 15.60 µg/mL (≈ 45.7 µM); MIC S. typhimurium (S. typhimurium): 15.60 µg/mL (≈ 45.7 µM)
